Where two headings read alike, the source gives them in different places.

In general, Kd refers to the concentration at which binding is half-saturated. Read a low Kd as tighter binding.

Assay [1] concerns the target T1, AaBioW (pimeloyl-CoA synthetase BioW) (Aquifex aeolicus, UniProt O67575). As to the kind of experiment: co-crystal structure with CoA. It is filed as binding.
In assay [2] the target is T1, AaBioW (pimeloyl-CoA synthetase BioW). As to the kind of experiment: ITC. It counts as binding.
Assay [3] has the same target. As to the kind of experiment: ITC. It counts as binding. The source holds these as a separate data set.
Assay [4] shares this target. As to the kind of experiment: TLC proofreading assay. It is filed as biochemical.
Assay [5] shares this target. As to the kind of experiment: TLC adenylation/proofreading assay. It is filed as biochemical.

T1 sequence (O67575 whole entry): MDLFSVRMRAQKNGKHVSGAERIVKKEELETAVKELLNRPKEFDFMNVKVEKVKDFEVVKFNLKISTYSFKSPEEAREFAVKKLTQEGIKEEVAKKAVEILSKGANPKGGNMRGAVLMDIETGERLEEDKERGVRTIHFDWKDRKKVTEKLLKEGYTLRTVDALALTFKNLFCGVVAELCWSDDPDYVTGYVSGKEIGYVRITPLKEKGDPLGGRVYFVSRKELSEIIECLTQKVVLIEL

As for `Nc1ncnc2c1ncn2[C@@H]1O[C@H](COP(=O)(O)O)[C@@H](O)[C@H]1O` [AMP], in assay [1], the “co-crystal structure with CoA (2.25 Å)” value is “AaBioW with CoA–AMP (5TVA)”. Compound `Nc1ncnc2c1ncn2[C@@H]1O[C@H](COP(=O)(O)OP(=O)(O)OP(=O)(O)O)[C@@H](O)[C@H]1O` [ATP] registered a dissociation constant (Kd) in assay [2] of 13 ± 3 µM. Compound `CC(C)(COP(=O)(O)OP(=O)(O)OC[C@H]1O[C@@H](n2cnc3c(N)ncnc32)[C@H](O)[C@@H]1OP(=O)(O)O)[C@@H](O)C(=O)NCCC(=O)NCCS` [CoA] showed a Kd in assay [3] of 14 ± 2.5 µM. `O=C(O)CCCC(=O)O` [compound 3, glutarate]: the “TLC proofreading assay (AMP accumulation)” value in assay [4] is “reactions carried out using glutarate in the absence of CoA resulted only in the accumulation of AMP”. On to `O=C(O)CCCCC(=O)O` [compound 4, adipate], for which the TLC adenylation/proofreading assay result in assay [5] was “adenylated intermediates can be observed for the cognate C7, as well as for the noncognate C6 and C8 substrates”. Still for that read-out and setting: next, `O=C(O)CCCCCCC(=O)O` [compound 5, suberate]: “adenylated intermediates can be observed for the cognate C7, as well as for the noncognate C6 and C8 substrates”.

Source of the values: paper PMC7310518 (Nature chemical biology, 2017).
